According to patent publication US6518410B2, “Sulfoquinovosylacylglycerol derivative, and use thereof as medicaments” (Toyo Suisan Kaisha, Ltd., priority 1999, dated 2003):

What was measured:
[1] = molecular target: T1, DNA polymerase α isolated from the bovine thymus (Bos taurus, UniProt A0AAA9TD94); assay: Inhibitory effect against DNA polymerase α; type: biochemical; conditions: 0.05 U enzyme, 37° C., 60 minutes; mixture of S- and R-configurations; read-out: IC50, Inhibition Activity against DNA Polymerase α (converted)
T1 construct: isolated from the bovine thymus and purified with an antibody column; from tissue; host or cells: bovine thymus
T1 sequence (A0AAA9TD94 1-1441): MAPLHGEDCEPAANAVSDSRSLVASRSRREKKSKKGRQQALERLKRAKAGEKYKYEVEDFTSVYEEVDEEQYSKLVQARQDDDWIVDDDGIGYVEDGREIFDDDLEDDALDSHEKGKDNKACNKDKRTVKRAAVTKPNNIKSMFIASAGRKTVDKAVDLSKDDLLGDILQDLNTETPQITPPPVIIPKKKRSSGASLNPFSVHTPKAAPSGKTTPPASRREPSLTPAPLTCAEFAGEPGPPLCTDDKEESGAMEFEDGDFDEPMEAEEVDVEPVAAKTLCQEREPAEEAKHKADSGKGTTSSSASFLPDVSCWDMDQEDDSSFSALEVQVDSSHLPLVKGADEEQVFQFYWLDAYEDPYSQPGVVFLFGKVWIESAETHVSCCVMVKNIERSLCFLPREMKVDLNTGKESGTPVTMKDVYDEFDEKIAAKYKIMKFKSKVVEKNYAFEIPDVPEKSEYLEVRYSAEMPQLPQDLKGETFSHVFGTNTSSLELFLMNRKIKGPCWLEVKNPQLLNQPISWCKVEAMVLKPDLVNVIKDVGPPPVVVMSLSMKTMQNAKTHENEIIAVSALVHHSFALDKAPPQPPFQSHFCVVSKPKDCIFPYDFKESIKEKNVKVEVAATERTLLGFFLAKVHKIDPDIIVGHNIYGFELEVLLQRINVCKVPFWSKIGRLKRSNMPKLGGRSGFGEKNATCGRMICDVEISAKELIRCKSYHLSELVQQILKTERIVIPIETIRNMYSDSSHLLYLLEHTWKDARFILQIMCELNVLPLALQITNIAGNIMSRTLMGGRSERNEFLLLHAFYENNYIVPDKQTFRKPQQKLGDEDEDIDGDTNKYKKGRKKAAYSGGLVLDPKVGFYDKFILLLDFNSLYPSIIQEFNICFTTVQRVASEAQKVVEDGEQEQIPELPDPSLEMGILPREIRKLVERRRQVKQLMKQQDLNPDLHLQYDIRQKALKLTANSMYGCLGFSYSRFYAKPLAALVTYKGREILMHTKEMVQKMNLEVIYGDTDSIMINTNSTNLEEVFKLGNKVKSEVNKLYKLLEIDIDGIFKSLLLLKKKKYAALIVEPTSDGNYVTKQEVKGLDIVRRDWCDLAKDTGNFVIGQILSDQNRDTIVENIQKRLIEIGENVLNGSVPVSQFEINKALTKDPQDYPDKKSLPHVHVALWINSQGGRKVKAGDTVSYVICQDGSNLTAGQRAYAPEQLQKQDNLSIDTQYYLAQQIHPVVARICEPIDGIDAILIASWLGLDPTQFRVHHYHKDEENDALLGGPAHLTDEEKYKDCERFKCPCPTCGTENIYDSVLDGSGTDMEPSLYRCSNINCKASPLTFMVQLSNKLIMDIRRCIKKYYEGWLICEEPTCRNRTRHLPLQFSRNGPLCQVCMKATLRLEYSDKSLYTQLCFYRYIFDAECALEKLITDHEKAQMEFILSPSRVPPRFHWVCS
Description: An assay on inhibitory effect against a DNA polymerase α was carried out in the following manner.
0.05 U of a DNA polymerase α isolated from the bovine thymus and purified with an antibody column was mixed with each of compounds SQAG 1 to SQAG 14 listed in Table 1 above, each of which was dissolved in DMSO. Each mixture was added with a buffer of an inorganic salt necessary for the enzymatic reaction, [^3H]-labeled dTTP, and a compound for reaction containing a template DNA chain, and was incubated at 37° C. for 60 minutes.
After the enzymatic reaction was stopped, the resultant product was fixed on a dedicated filter to make measurement by a liquid scintillation counter. The amount of enzymatically synthesized dTTP was calculated as a radiation dose (cpm) of [^3H].

[2] = tested on: Colon cancer cells DLD-1; assay: Anticancer activity against cultured colon cancer cells (MTT assay); type: cell-based; conditions: Homo sapiens, DLD-1, 48 hours, mixture of S- and R-configurations, read-out: IC50, Anti-Cancer Activity against Colon Cancer Cells
Description: An assay on anticancer activity against cultured colon cancer cells was carried out in the following manner.
(§1) Colon cancer cells DLD-1 were maintained and subcultured in RPMI 1640 medium (containing 10% calf serum). Each of compounds SQAG 1, SQAG 2, SQAG 4, SQAG 6, SQAG 8, SQAG 11, SQAG 12, SQAG 13 and SQAG 14 shown in Table 1 was suspended and diluted in the medium, and then was cultivated in a 96-well plate together with the cancer cells at 3×10^3 cells/well. After the culture has been incubated for 48 hours, the MTT assay (Mosmann, T: Journal of immunological Method, 65, 55-63 (1983)) was carried out to compare viability rates.

[3] = tested on: gastric cancer cells NUGC-3; assay: Anticancer activity against cultured gastric cancer cells (MTT assay); type: cell-based; conditions: Homo sapiens, NUGC-3, 48 hours, mixture of S- and R-configurations
Description: as §1
An assay on anticancer activity against cultured gastric cancer cells was carried out in the same manner as in the assay 4 except that gastric cancer cells NUGC-3 were used instead of the colon cancer cells DLD-1.

[4] = tested on: responder cells (T lymphocytes) with mitomycin C treated stimulator lymphocytes; assay: Mixed lymphocytes reaction ([3H]-thymidine uptake of responder cells); type: cell-based, healthy persons; conditions: 4 days culture, then 12 hours [3H]-thymidine; FIGS. 1-4
Description: Mixed lymphocytes reaction
Lymphocytes serving as stimulator cells and responder cells were prepared from blood taken from individual healthy persons.
The responder cells were further separated from the lymphocyte cells to give T lymphocytes alone.
No treatment was applied to the responder cells. 10^6/mL of the stimulator cells were treated with 10 μg/mL of mitomycin C to stop the cell growth. Thereafter, the stimulator cells were washed with PBS (phosphate buffer saline) 4 times.
Subsequently, the responder cells were inoculated at a rate of 10^5 cells per well and then test substances (compounds SQAG 3, SQAG 5, SQAG 7, and SQAG 9 listed in Table 6 below) were added to a predetermined concentration. The reaction mixture was cultured at 37° C. for one hour. Thereafter, the stimulator cells were added at a rate of 10^5 cells per well. The mixture was cultured in a CO2 incubator at 37° C. for 4 days. After the incubation, the proliferation ability of the responder cells was quantified as follows. […] Then, the amount of [^3H]-thymidine uptake into the cells was determined by a scintillation counter.
FIGS. 1-4 show the amounts of [^3H]-thymidine uptake when SQAG 3, SQAG 5, SQAG 7, and SQAG 9 are added. […] In each of the FIGS. 1-4, the vertical axis indicates the intensity of radioactivity and the horizontal axis indicates the concentration of the test substance.

[5] = tested on: LEW rat skin graft on ACI rats; assay: Rejection test in skin graft; type: in vivo; conditions: 10 mL of 1 mg/mL intraperitoneally daily for five days, graft taken on the seventh day
Description: Rejection test in skin graft
ACI rats and LEW rats were prepared and subjected to inhalation anesthesia of ether. After shaving the dorsum of each ACI rat, posterior lateral skin (1×1 cm) was removed to form a skin-flayed wound, and then a hemostatic treatment was performed. On the other hand, a piece of skin (1×1 cm) was obtained from the tail of each LEW rat. The donor skin was applied to the skin-flayed wound of each ACI rat and sutured with 5-0 nylon sutures. Then, gauze was applied to the surgically operated portion and a corset with a rubber bandage was further attached thereon to protect it. Such a skin transplantation operation was applied to all ten ACI rats in the same manner. Of the ten ACT rats, five rats were selected at random and classified as a control group, and the remaining five rats were classified as a test group to which test substances are to be administered. To the control group, 10 mL of physiological saline was intraperitoneally injected daily for five days after the surgery. To the test group, 10 mL solution of SQAG 9 dissolved in physiological saline at a concentration of 1 mg/mL was intraperitoneally injected daily for five days after the surgery in the same manner as in the control group.
On the seventh day after the operation, a graft was taken to prepare a tissue specimen. […]

## CCCCCCCCCCCCCCCCCCCCCC(=O)OCC(O)CO[C@H]1O[C@H](CS(=O)(=O)O)[C@@H](O)[C@H](O)[C@H]1O (mixture of isomers) [SQAG 12]
[1]
  IC50: 1560 nM
[2]
  IC50: 20 µg/mL
[3]
  IC50: 23 µg/mL

## CCCCCCCCCCCCCCCC(=O)OCC(CO[C@@H]1O[C@H](CS(=O)(=O)O)[C@@H](O)[C@H](O)[C@H]1O)OC(=O)CCCCCCCCCCCCCCC (mixture of isomers) [SQAG 7]
[1]
  IC50: 377 nM

## CCCCCCCCCCCCCCCCCC(=O)OCC(CO[C@@H]1O[C@H](CS(=O)(=O)O)[C@@H](O)[C@H](O)[C@H]1O)OC(=O)CCCCCCCCCCCCCCCCC (mixture of isomers) [SQAG 9]
[4]
  immunosuppressive activity (amount of [3H]-thymidine uptake): considerably higher immunosuppressive activity than other compounds
[5]
  necrosis of the epidermal layer of the graft (histological observation): three out of five rats
  rats in which some parts of the epidermis adhered to the dermis (rejection suppressed): remaining two rats
[1]
  IC50: 352 nM

## CCCCCCCCCCCCCCCCCCCCCCCC(=O)OCC(O)CO[C@H]1O[C@H](CS(=O)(=O)O)[C@@H](O)[C@H](O)[C@H]1O (mixture of isomers) [SQAG 13]
[1]
  IC50: 1490 nM
[2]
  IC50: 20 µg/mL
[3]
  IC50: 20 µg/mL

## CCCCCCCCCCCCCCCCCCCC(=O)OCC(O)CO[C@H]1O[C@H](CS(=O)(=O)O)[C@@H](O)[C@H](O)[C@H]1O (mixture of isomers) [SQAG 11]
[1]
  IC50: 1960 nM
[2]
  IC50: 28 µg/mL
[3]
  IC50: 24 µg/mL

## CCCCCCCCCCCCCC(=O)OCC(CO[C@H]1O[C@H](CS(=O)(=O)O)[C@@H](O)[C@H](O)[C@H]1O)OC(=O)CCCCCCCCCCCCC (mixture of isomers) [SQAG 1]
[1]
  IC50: 1080 nM
[2]
  IC50: 38 µg/mL
[3]
  IC50: 32 µg/mL

## CCCCCCCCCCCCCCCCCC(=O)OCC(O)CO[C@@H]1O[C@H](CS(=O)(=O)O)[C@@H](O)[C@H](O)[C@H]1O (mixture of isomers) [SQAG 10]
[1]
  IC50: 5130 nM

## CCCCCCCCCCCCCCCCCC(=O)OCC(CO[C@H]1O[C@H](CS(=O)(=O)O)[C@@H](O)[C@H](O)[C@H]1O)OC(=O)CCCCCCCCCCCCCCCCC (mixture of isomers) [SQAG 5]
[1]
  IC50: 352 nM

## CCCCCCCCCCCCCCCCCCCCCCCCCC(=O)OCC(O)CO[C@H]1O[C@H](CS(=O)(=O)O)[C@@H](O)[C@H](O)[C@H]1O (mixture of isomers) [SQAG 14]
[1]
  IC50: 1430 nM
[2]
  IC50: 18 µg/mL
[3]
  IC50: 20 µg/mL

## CCCCCCCCCCCCCCCC(=O)OCC(O)CO[C@@H]1O[C@H](CS(=O)(=O)O)[C@@H](O)[C@H](O)[C@H]1O (mixture of isomers) [SQAG 8]
[1]
  IC50: 7190 nM
[2]
  IC50: 42 µg/mL
[3]
  IC50: 50 µg/mL

## CCCCCCCCCCCCCCCCCC(=O)OCC(O)CO[C@H]1O[C@H](CS(=O)(=O)O)[C@@H](O)[C@H](O)[C@H]1O (mixture of isomers) [SQAG 6]
[1]
  IC50: 4100 nM
[2]
  IC50: 30 µg/mL
[3]
  IC50: 37.5 µg/mL

## CCCCCCCCCCCCCC(=O)OCC(O)CO[C@H]1O[C@H](CS(=O)(=O)O)[C@@H](O)[C@H](O)[C@H]1O (mixture of isomers) [SQAG 2]
[1]
  IC50: 8510 nM
[2]
  IC50: 40 µg/mL
[3]
  IC50: 40 µg/mL

## CCCCCCCCCCCCCCCC(=O)OCC(O)CO[C@H]1O[C@H](CS(=O)(=O)O)[C@@H](O)[C@H](O)[C@H]1O (mixture of isomers) [SQAG 4]
[1]
  IC50: 6290 nM
[2]
  IC50: 31 µg/mL
[3]
  IC50: 40 µg/mL

## CCCCCCCCCCCCCCCC(=O)OCC(CO[C@H]1O[C@H](CS(=O)(=O)O)[C@@H](O)[C@H](O)[C@H]1O)OC(=O)CCCCCCCCCCCCCCC (some centres unmarked) [SQAG 3]
[1]
  IC50: 503 nM
